For one data set, the system named is cyclooxygenase. The data set is described as follows: In vitro effect on [14C]arachidonic acid metabolism in a cell-free homogenate of murine pulmonary tissue. It counts as biochemical, CBA mice. To be noted: compound 10^−4 M, 37° C., 30 minutes. The method, then: Studies of arachidonic acid metabolism was carried out on females CBA mice who where fed a standard vivarium fodder. Animals (mice) were sacrificed, lungs were extracted, homogenized in a glass homogenizer manufactured by the firm “Wheaton” (USA) at 4° C. in 10 volumes of 0.05 M Tris-HCl buffer. Aliquots (0.5 ml) of supernatant were incubated in 0.5 μCi [1-C^14]-arachidonic acid [C^14]-AA, “Amersham”, England; specific activity 50-60 μCi/mmole) at 37° C. for 30 minutes. Non-metabolized [αC^14]-AA and products of metabolism thereof were extracted in 20 volumes of chloroform and methanol mixture (1:1) in extraction efficacy not less than 90% assessed using [C^14]-PGF2α. [C^14]-AA and metabolites thereof were separated and identified using TLC (the plates Kieselgel 60 of the “Merck” firm, Germany) using as an organic phase, the system of solvents (ethylacetate, isooctane, acetic acid, water—110:50:20:100) and labeled standards. Densitometry of autoradiochromograms obtained on the X-ray film X-Omat AR (“Kodak”, USA) and HS 11 (“ORWO”, Germany), was performed on the densiscan KS 3 (“Kipp and Zonnen”, Holland). Quantitative analysis of individual eicosanoids was carried out using radiometry of fractions obtained by high-performance liquid chromatography (the HPLC-system of the “Gilson” form, France; the column ZORBAX C8 of the “Du Pont” firm, USA) and by elution of spots on TLC-plates. The tested compounds were administered at concentration 10^−4 M.

Another data set relates to rat uterine horn's SMP. Nature of the data set: Serotonin-induced contracture of rat uterine horn smooth muscle preparation. Also noted: species or system Wistar rats. To be noted: for Inhibition of contractions of the rat uterine horn's SMP, % / Rate of contractions of the rat uterine horn's SMP during 5 minutes: serotonin 10^−5 M; for Rate of contractions of the rat uterine horn's SMP during 5 minutes: control 9. On the procedure: The model of serotonin-induced soft muscular contracture of an uterine horn [Blattner H. G., Dehnert H. et al. Experiments on isolated smooth muscle preparation. Ed. J. M. Barnden and R. Colson, 1980] was created on females of Wistar rats weighing 300-350 grams. A prepared smooth muscle preparation (SMP) was placed into a thermo-regulated chamber (+37° C.) containing Tirode solution with lowered calcium content in order to prevent spontaneous contractive activity of the smooth muscle preparation. Contraction of the uterine horn was recorded using the mechanotron 6M×2B connected to the polygraph KPS-4; initial load to the object was 0.5-0.7 grams.
Contracture of the SMP was induced by introduction into incubation medium of 0.1 ml serotonin (Sigma) at concentration 10^−5 M. 30-60 seconds post administration of the mediator, a peak contraction amplitude of the uterine horn was recorded. Compound IX was introduced into the chamber at the peak amplitude of contractions or under conditions of incubation (within the same range of concentrations) for 15 minutes.
The effect of compound IX being tested was assessed by a number of contractions and by lowering the amplitude value.

Data set [1] deals with mice in the model of hypoxic hypoxia with hypercapnia. Nature of the data set: Hypoxic hypoxia with hypercapnia in a hermetic volume. Format: in vivo. To be noted: for Duration of hypoxia (life span), M ± m: control 25.6 ± 0.6. The text has this: In order to imitate acute oxygen insufficiency the hypoxia model with hypercapnia in a hermetic volume was used (Luk'yanova L. D., Gatsura V. V., Pastushenkov L. V. Metodicheskiye recomendatsii po experimental'nomu izucheniju preparatov, predlagajemykh dlya klinicheskogo isuchenija v kachestve antihypoxicheskikh sredsyv (Methodological recommendations on experimental study of preparations proposed for clinical examination as anti-hypoxic agents). Moscow. 1960. P. 1-19]. […] weighing 27-29 grams were individually placed into 260 ml glass jars which were hermetically closed. As the animals consume oxygen, its concentration in the vessel lowers that results in death of the animals. Life span of the mice in minutes was recorded.

In data set [2] the test system is "acetic contortions" in mice. The data set is described as follows: Analgetic activity on the model "acetic contortions". It counts as in vivo, white mongrel mice. Particulars: dose 10 mg/kg (table title).
A further data set deals with gastric mucosa of rats. The data set is described as follows: Ulcerogenic effect on gastric mucosa. It counts as in vivo, outbreed rats. Particulars: 30 mg/kg once intragastrally, at 24 hours, M ± m. The method, then:
The tests were carried out on females of outbreed rats weighing 300-320 grams. The compounds tested were administered once intragastrally at a dose 30 mg/kg to rats deprived of feed for 24 hours prior to the test. Animals in the control group were administered distilled water in the same volume. At 24 hours the animals were sacrificed and stomachs were extracted. An empty stomach was filled with 2% formalin solution and it was placed into a beaker with formalin. 30 minutes later, the stomach was opened along the great curvature, expanded on a slide, fixed and washed with distilled water. Using the magnifying glass MBS-9 (8-fold magnification) length and width of gastric mucosa defects was measured and area in mm^2 was calculated (1 division of the magnifying glass ruler=0.1 mm). Ulcerogenic effect of a substance was assessed by ulcerous lesion area of gastric mucosa according to the technique presented in Rukovodstvo po experimental'nomu (doklinicheskomu) izucheniju novykh pharmacologicheskikh veshchestv (the Guide on Experimental (pre-clinical) Study of Novel Pharmacological Substances)./Moscow. “Remedium” publishers. 2000, 398 pages.

The mark [3] stands for this setting: added at the peak serotonin-induced contracture.

Compound `O=C(CCc1ccc(O)cc1)NCCc1ccccc1` [Compound IX, 3-(p-hydroxyphenyl)-propionylphenylethylamine] registered a Prostanoids in the data set with cyclooxygenase (b308 reads these as % cyclooxygenase inhibition) of −33. Besides, in the data set on cyclooxygenase (change), the 6-keto-PGF1α is −30, the “AA (arachidonic acid)” value is reported as “+47”, the PGE2 is −38 and the PGF2α is given as −27. This compound also gave a TXB2 with cyclooxygenase (change) of −40. In addition, in the data set on rat uterine horn's SMP (setting [3]), the “Inhibition of contractions of the rat uterine horn's SMP, %” value is reported as 44.4% and the “Rate of contractions of the rat uterine horn's SMP during 5 minutes” value stood at 5. The “SMP contracture after the slowed contractions” value in the data set with rat uterine horn's SMP (pre-incubation conditions) is recorded as “complete blockade”. Further, in the data set on rat uterine horn's SMP (pre-incubation for 15 minutes), the “Inhibition of contractions of the rat uterine horn's SMP, %” value is 55.6% and the “Rate of contractions of the rat uterine horn's SMP during 5 minutes” value turned out to be 4. Also, in data set [1] (10 mg/kg), the “% change from the control” value is 0% and the “Duration of hypoxia (life span), M ± m” value was determined as 25.3 ± 0.8 min. Also, the “Duration of hypoxia (life span), M ± m” value in data set [1] (50 mg/kg) is 32.6 ± 2.6 min. Moreover, the inhibition in vivo at 10 mg/kg in data set [2] (Mus musculus, ip, 0.25 h, read-out: Analgetic effect (%)) stood at 68%. Besides, the response vs control in vivo at 10 mg/kg in data set [2] (Mus musculus, ip, 0.25 h, read-out: C, % to the control) came out at 32%. Besides, the “C ± m (the number of contortions for 15 minutes)” value in data set [2] (60 minutes prior to acetic acid) was found to be 11.8 ± 2.9. Also, the “Area of ulcerous lesion” value with gastric mucosa of rats was determined as 0 mm^2.

These data come from patent US8309766B2 (Obschestvo S. Organichennoi Otvetstvennostiyu …, priority 2005, dated 2012).
